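The compound was tested at five concentrations on cells cultured in 96-well plates, with a 48-hour exposure period. The concentration for 50% growth inhibition is given as GI50. TGI marks complete inhibition of growth.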
Legend:
Assay in all cases: NCI anticancer screen, dose series, 48 h
SF-295 CNS = system: SF-295 CNS
RPMI-8226 leukemia = system: RPMI-8226 leukemia
SNB-19 CNS = system: SNB-19 CNS
HCC-2998 colon = system: HCC-2998 colon
HOP-62 NSCLC = system: HOP-62 NSCLC
T-47D breast = system: T-47D breast
MDA-MB-435 = system: MDA-MB-435
UACC-62 melanoma = system: UACC-62 melanoma
SK-MEL-28 melanoma = system: SK-MEL-28 melanoma
SK-MEL-2 melanoma = system: SK-MEL-2 melanoma

## O=C1C(Br)=CC2(C=C1Br)CCN=c1c2c(O)c2nc3ccccc3c3ccnc1c23
SF-295 CNS
  GI50: 5.97 µM
  TGI: 19.3 µM
RPMI-8226 leukemia
  GI50: 0.591 µM
  TGI: 1.57 µM
SNB-19 CNS
  GI50: 4.59 µM
  TGI: 12.1 µM
HCC-2998 colon
  GI50: 9.78 µM
  TGI: 22.3 µM
HOP-62 NSCLC
  GI50: 7.99 µM
  TGI: 15.6 µM
T-47D breast
  GI50: 1.13 µM
  TGI: 3.76 µM
MDA-MB-435
  GI50: 1.18 µM
  TGI: 3.09 µM
UACC-62 melanoma
  GI50: 3.31 µM
  TGI: 10.7 µM
SK-MEL-28 melanoma
  GI50: 0.803 µM
  TGI: 2.49 µM

## C=C1C[C@](OC)([C@H](O)C(=O)N[C@@H](OC)[C@@H]2C[C@@H](O)C(C)(C)[C@@H](C[C@@H](COC)OC)O2)O[C@H](C)[C@@H]1C
SF-295 CNS
  GI50: 0.000353 µM
  TGI: 0.00181 µM
SNB-19 CNS
  GI50: 0.00149 µM
  TGI: 0.00645 µM
HCC-2998 colon
  GI50: 0.00101 µM
  TGI: 0.00285 µM
HOP-62 NSCLC
  GI50: 0.00211 µM
  TGI: 0.0102 µM
T-47D breast
  GI50: 0.000814 µM
  TGI: 0.00548 µM
MDA-MB-435
  GI50: 0.00162 µM
  TGI: 0.00507 µM
SK-MEL-2 melanoma
  GI50: 0.0023 µM
  TGI: 0.025 µM
UACC-62 melanoma
  GI50: 0.00153 µM
  TGI: 0.00524 µM
SK-MEL-28 melanoma
  GI50: 0.00129 µM
  TGI: 0.00383 µM

## Cc1ccc(NC(=O)NC(=O)c2ccc([N+](=O)[O-])cc2[N+](=O)[O-])cc1Oc1ncc(Cl)cn1
SF-295 CNS
  TGI: 43.5 µM
RPMI-8226 leukemia
  TGI: 3.08 µM
SNB-19 CNS
  TGI: 21.4 µM
HCC-2998 colon
  TGI: 0.619 µM
HOP-62 NSCLC
  TGI: 12.5 µM
T-47D breast
  TGI: 40.6 µM
MDA-MB-435
  TGI: 0.542 µM
UACC-62 melanoma
  TGI: 21 µM
SK-MEL-28 melanoma
  TGI: 24.1 µM

## COc1cc(NCCCCN=C(N)NC(N)=NC(C)C)c2ncccc2c1
SF-295 CNS
  GI50: 23 µM
  TGI: > 91.1 µM
RPMI-8226 leukemia
  GI50: 1.51 µM
  TGI: 11 µM
SNB-19 CNS
  GI50: 9.86 µM
  TGI: 26.3 µM
HCC-2998 colon
  GI50: 2.52 µM
  TGI: 14.2 µM
HOP-62 NSCLC
  GI50: 13.7 µM
  TGI: 28.6 µM
T-47D breast
  GI50: 0.739 µM
  TGI: 8.2 µM
MDA-MB-435
  GI50: 12.9 µM
  TGI: 26.7 µM
SK-MEL-2 melanoma
  GI50: 3.8 µM
  TGI: 14.9 µM
UACC-62 melanoma
  GI50: 10.3 µM
  TGI: 24.3 µM
SK-MEL-28 melanoma
  GI50: 12.1 µM
  TGI: 24.7 µM

## COc1ccc(C(=O)c2ccc(OC)c(OC)c2OC)cc1
SF-295 CNS
  GI50: 0.956 µM
  TGI: 5.07 µM
RPMI-8226 leukemia
  GI50: 2.59 µM
  TGI: > 100 µM
SNB-19 CNS
  GI50: 4.87 µM
  TGI: > 100 µM
HCC-2998 colon
  GI50: 2.76 µM
  TGI: > 100 µM
HOP-62 NSCLC
  GI50: 2.39 µM
  TGI: > 100 µM
T-47D breast
  GI50: 5.37 µM
  TGI: > 100 µM
MDA-MB-435
  GI50: 0.2 µM
  TGI: 0.525 µM
SK-MEL-2 melanoma
  GI50: 0.402 µM
  TGI: 3.33 µM
UACC-62 melanoma
  GI50: 1.47 µM
  TGI: > 100 µM
SK-MEL-28 melanoma
  GI50: 4.51 µM
  TGI: > 100 µM

## O=C(O)C1C(C(=O)Nc2ccc3c(c2)Cc2ccccc2-3)C2(Cl)C(Cl)=C(Cl)C1(Cl)C2(Cl)Cl (stereo not drawn)
SF-295 CNS
  TGI: > 100 µM
RPMI-8226 leukemia
  TGI: 32 µM
SNB-19 CNS
  TGI: > 100 µM
HCC-2998 colon
  TGI: 34.8 µM
HOP-62 NSCLC
  TGI: > 100 µM
T-47D breast
  TGI: > 100 µM
MDA-MB-435
  TGI: 76.8 µM
SK-MEL-2 melanoma
  TGI: 36.2 µM
UACC-62 melanoma
  TGI: 31.1 µM
SK-MEL-28 melanoma
  TGI: 46.3 µM

## NC(CSC(c1ccccc1)(c1ccccc1)c1ccc(Cl)cc1)C(=O)O (stereo not drawn)
SF-295 CNS
  GI50: 0.216 µM
  TGI: 3.57 µM
RPMI-8226 leukemia
  GI50: 0.143 µM
  TGI: 21.5 µM
SNB-19 CNS
  GI50: 0.569 µM
  TGI: 33.2 µM
HCC-2998 colon
  GI50: 0.276 µM
  TGI: 2.77 µM
HOP-62 NSCLC
  GI50: 0.714 µM
  TGI: 20.5 µM
T-47D breast
  GI50: 0.376 µM
  TGI: 42 µM
MDA-MB-435
  GI50: 0.0344 µM
  TGI: 0.158 µM
SK-MEL-2 melanoma
  GI50: 0.239 µM
  TGI: 5.07 µM
UACC-62 melanoma
  GI50: 0.18 µM
  TGI: 21.6 µM
SK-MEL-28 melanoma
  GI50: 2.46 µM
  TGI: 44.3 µM

## COc1cc2c(cc1OCCOS(C)(=O)=O)N=C[C@@H]1CCCN1C2=O
SF-295 CNS
  TGI: 75.4 µM
RPMI-8226 leukemia
  GI50: 12.2 µM
  TGI: 48.8 µM
SNB-19 CNS
  TGI: > 100 µM
HCC-2998 colon
  TGI: > 100 µM
T-47D breast
  TGI: > 100 µM
MDA-MB-435
  TGI: 37.7 µM
SK-MEL-2 melanoma
  TGI: > 100 µM
UACC-62 melanoma
  GI50: 19.4 µM
  TGI: 42.5 µM
SK-MEL-28 melanoma
  TGI: 61.5 µM

## CC(C)C1OC(=O)C=C1Sc1ccccc1 (stereo not drawn)
SF-295 CNS
  TGI: > 100 µM
RPMI-8226 leukemia
  TGI: > 100 µM
SNB-19 CNS
  TGI: > 100 µM
HCC-2998 colon
  TGI: > 100 µM
HOP-62 NSCLC
  TGI: > 100 µM
T-47D breast
  TGI: > 100 µM
MDA-MB-435
  TGI: > 100 µM
SK-MEL-2 melanoma
  TGI: > 100 µM
UACC-62 melanoma
  TGI: > 100 µM
SK-MEL-28 melanoma
  TGI: > 100 µM

## CCCCCC(O)C1C(=O)OC(C)C(O)/C=C/C=C/C=C/C=C\C=C(\C)C(O)CC(O)CC(O)CC(O)CC(O)CC(O)CC1O (stereo not drawn)
SF-295 CNS
  GI50: > 100 µM
  TGI: > 100 µM
RPMI-8226 leukemia
  GI50: > 100 µM
  TGI: > 100 µM
SNB-19 CNS
  GI50: > 100 µM
  TGI: > 100 µM
HCC-2998 colon
  GI50: > 100 µM
  TGI: > 100 µM
HOP-62 NSCLC
  GI50: > 100 µM
  TGI: > 100 µM
T-47D breast
  GI50: > 100 µM
  TGI: > 100 µM
MDA-MB-435
  GI50: > 100 µM
  TGI: > 100 µM
SK-MEL-2 melanoma
  GI50: > 100 µM
  TGI: > 100 µM
UACC-62 melanoma
  GI50: > 100 µM
  TGI: > 100 µM
SK-MEL-28 melanoma
  GI50: > 100 µM
  TGI: > 100 µM

## COc1ccc(Nn2c(SCC(=O)Nc3nc(-c4ccc(Cl)cc4)cs3)nc(C)c2C)cc1
SF-295 CNS
  GI50: 2.18 µM
  TGI: > 100 µM
RPMI-8226 leukemia
  GI50: 5.8 µM
  TGI: > 100 µM
SNB-19 CNS
  GI50: 6.19 µM
  TGI: > 100 µM
HCC-2998 colon
  GI50: 3.07 µM
  TGI: 9.91 µM
T-47D breast
  GI50: 1.23 µM
  TGI: 8.04 µM
MDA-MB-435
  GI50: 3.22 µM
  TGI: > 100 µM
SK-MEL-2 melanoma
  GI50: 15.7 µM
  TGI: 66.8 µM
UACC-62 melanoma
  GI50: 3.62 µM
  TGI: > 100 µM
SK-MEL-28 melanoma
  GI50: 18 µM
  TGI: > 100 µM

## Cc1cccc(Oc2nccc(-c3c(-c4ccc(F)cc4)ncn3C3CCNCC3)n2)c1C
SF-295 CNS
  GI50: 5.56 µM
  TGI: 14 µM
RPMI-8226 leukemia
  GI50: 7.52 µM
  TGI: > 18.6 µM
SNB-19 CNS
  GI50: 10.2 µM
  TGI: > 25 µM
HCC-2998 colon
  GI50: 4.22 µM
  TGI: 8.96 µM
HOP-62 NSCLC
  GI50: 4.84 µM
  TGI: 9.56 µM
T-47D breast
  GI50: 4.92 µM
  TGI: 10.6 µM
MDA-MB-435
  GI50: 6.52 µM
  TGI: > 16.1 µM
SK-MEL-2 melanoma
  GI50: 9.09 µM
  TGI: > 15.9 µM
UACC-62 melanoma
  GI50: 4.94 µM
  TGI: 9.96 µM
SK-MEL-28 melanoma
  GI50: 4.65 µM
  TGI: 9.48 µM

## C=C(C)[C@@H]1CC[C@]2(C)[C@H](C(=O)C=C3[C@@H]4C[C@](C)(C(=O)N5CCN(C)CC5)CC[C@]4(C)CC[C@]32C)[C@@]1(C)CCC#N
SF-295 CNS
  GI50: 7.75 µM
  TGI: 15.2 µM
RPMI-8226 leukemia
  GI50: 5.47 µM
  TGI: 15.4 µM
SNB-19 CNS
  GI50: 7.87 µM
  TGI: 14.9 µM
HCC-2998 colon
  GI50: 6.72 µM
  TGI: 13.6 µM
HOP-62 NSCLC
  GI50: 6.33 µM
  TGI: 13.3 µM
T-47D breast
  GI50: 4.42 µM
  TGI: 13.4 µM
MDA-MB-435
  GI50: 7.33 µM
  TGI: 14.2 µM
SK-MEL-2 melanoma
  GI50: 7.57 µM
  TGI: 14.8 µM
UACC-62 melanoma
  GI50: 6.03 µM
  TGI: 12.5 µM
SK-MEL-28 melanoma
  GI50: 7.23 µM
  TGI: 13.8 µM

## CSc1cnn(CCC#N)c(=O)n1
SF-295 CNS
  TGI: > 100 µM
RPMI-8226 leukemia
  TGI: > 100 µM
SNB-19 CNS
  TGI: > 100 µM
HCC-2998 colon
  TGI: > 100 µM
HOP-62 NSCLC
  TGI: > 100 µM
T-47D breast
  TGI: > 100 µM
MDA-MB-435
  TGI: > 100 µM
UACC-62 melanoma
  TGI: > 100 µM
SK-MEL-28 melanoma
  TGI: > 100 µM

— PubChem BioAssay (NCI)
